Experiments:
Assay type in all cases: biochemical
MMP-8 = biological target: T1, MMP-8 (Homo sapiens, UniProt P22894); experiment: In vitro MMP-8 inhibition test; details: human MMP-8
T1 construct: purchased R&D Systems 908-MP
Excerpt: (§1) The MMP-mediated amidolytic cleavage of a suitable peptide substrate leads to an increase in fluorescent light here too. The signal intensity of the fluorescent light is directly proportional to the enzyme activity. The active concentration of a test compound at which half the enzyme is inhibited (50% signal intensity of the fluorescent light) is reported as the IC50 value.
(§2) Recombinant MMP-8 (R&D Systems, 908-MP) is chemically activated in accordance with the manufacturer's instructions using APMA. 1 μl of the test compound to be analysed (as a solution in DMSO, suitable concentrations e.g. 1 nM to 30 μM) is pipetted into 24 μl of activated enzyme (final concentration e.g. 0.5 nM) in reaction buffer (50 mM Tris/HCl pH 7.5, 10 mM CaCl2, 150 mM NaCl, 0.05% Brij®-35) in a white 384-hole microtiter plate (MTP). The enzymatic reaction is started by adding the intramolecularly quenched Mca-Pro-Leu-Gly-Leu-Dpa(Dnp)-Ala-Arg-NH2 substrate (final concentration e.g. 10 μM; R&D Systems, ES-001), so as to result in a total test volume of 50 μl. The course of the MMP-8 reaction is measured by measuring the fluorescence intensity (excitation 320 nm, emission 410 nm) over a suitable period of time (e.g. over 120 min at a temperature of 32° C.).

MMP-3 = biological target: T2, MMP-3 (Homo sapiens, UniProt P08254); experiment: In vitro MMP-3 inhibition test; details: human MMP-3
T2 construct: purchased R&D Systems 513-MP
Excerpt: as §1
as §2, with “MMP-3” for “MMP-8”, “513-MP)” for “908-MP)”, “2” for “0.5”, “Mca-Arg-Pro-Lys-Pro-Val-Glu-Nval-Trp-Arg-Lys(Dnp)-NH2” for “Mca-Pro-Leu-Gly-Leu-Dpa(Dnp)-Ala-Arg-NH2”, “ES-002),” for “ES-001),”

MMP-2 = biological target: T3, MMP-2 (Homo sapiens, UniProt P08253); experiment: In vitro MMP-2 inhibition test; details: human MMP-2
T3 construct: purchased R&D Systems 902-MP
T3 sequence (P08253 110-660): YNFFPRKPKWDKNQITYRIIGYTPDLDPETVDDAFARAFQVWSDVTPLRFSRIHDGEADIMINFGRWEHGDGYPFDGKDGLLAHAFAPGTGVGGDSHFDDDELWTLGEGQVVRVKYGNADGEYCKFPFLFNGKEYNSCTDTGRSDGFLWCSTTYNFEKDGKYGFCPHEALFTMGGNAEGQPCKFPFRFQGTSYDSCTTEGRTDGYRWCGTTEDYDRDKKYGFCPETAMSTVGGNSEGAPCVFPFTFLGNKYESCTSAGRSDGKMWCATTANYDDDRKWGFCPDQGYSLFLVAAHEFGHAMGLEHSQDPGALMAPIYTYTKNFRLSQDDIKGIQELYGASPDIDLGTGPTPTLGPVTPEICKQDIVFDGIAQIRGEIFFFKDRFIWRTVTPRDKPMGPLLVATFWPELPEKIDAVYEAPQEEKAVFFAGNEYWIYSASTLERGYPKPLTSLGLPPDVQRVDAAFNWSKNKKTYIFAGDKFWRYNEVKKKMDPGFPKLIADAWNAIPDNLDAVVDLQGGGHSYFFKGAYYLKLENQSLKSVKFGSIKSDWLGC
Excerpt: as §1
as §2, with “MMP-2” for “MMP-8”, “902-MP)” for “908-MP)”, “2” for “0.5”

T1 sequence (P22894 101-467): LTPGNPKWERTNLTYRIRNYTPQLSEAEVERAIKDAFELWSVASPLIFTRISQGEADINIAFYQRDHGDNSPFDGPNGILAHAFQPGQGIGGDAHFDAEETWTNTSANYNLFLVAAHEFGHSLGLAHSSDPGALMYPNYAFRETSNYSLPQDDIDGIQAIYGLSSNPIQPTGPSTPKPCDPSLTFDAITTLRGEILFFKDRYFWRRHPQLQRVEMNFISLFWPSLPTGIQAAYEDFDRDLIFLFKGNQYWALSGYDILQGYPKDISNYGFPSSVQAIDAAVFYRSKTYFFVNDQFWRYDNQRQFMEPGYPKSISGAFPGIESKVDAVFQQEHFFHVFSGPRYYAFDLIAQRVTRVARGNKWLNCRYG
T2 sequence (P08254 100-477): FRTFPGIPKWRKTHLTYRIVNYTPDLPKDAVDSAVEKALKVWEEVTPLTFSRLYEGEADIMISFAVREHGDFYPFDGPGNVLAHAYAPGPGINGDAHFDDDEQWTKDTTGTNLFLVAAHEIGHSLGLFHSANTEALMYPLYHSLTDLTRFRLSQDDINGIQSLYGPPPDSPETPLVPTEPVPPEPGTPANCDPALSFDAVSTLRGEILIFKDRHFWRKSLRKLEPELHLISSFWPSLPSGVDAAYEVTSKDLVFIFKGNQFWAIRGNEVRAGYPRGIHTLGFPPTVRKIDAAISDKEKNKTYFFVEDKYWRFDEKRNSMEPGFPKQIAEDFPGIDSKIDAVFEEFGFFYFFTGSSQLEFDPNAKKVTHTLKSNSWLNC

IC50 (MMP-8) [nM] | IC50 (MMP-3) [nM] | IC50 (MMP-2) [nM] | Structure (SMILES)
9300 | 16000 | 350 | CCCCCOc1ccc2cc(C(=O)CC(CCn3nnc4ccccc4c3=O)C(=O)O)sc2c1 (racemic) [Example 118, (+/−)-4-Oxo-2-[2-(4-oxo-1,2,3-benzotriazin-3(4H)-yl)ethyl]-4-[6-(pentyloxy)-1-benzothiophen-2-yl]butanoic acid]
270 | 9100 | 270 | O=C(CC(CCn1nnc2ccccc2c1=O)C(=O)O)c1noc2cc(OCc3cccnc3)ccc12 (racemic) [Example 148, (+/−)-4-Oxo-2-[2-(4-oxo-1,2,3-benzotriazin-3(4H)-yl)ethyl]-4-[6-(pyridin-3-ylmethoxy)-1,2-benzoxazol-3-yl]butanoic acid]
400 | 33000 | 510 | O=C(CC(CCn1nnc2ccccc2c1=O)C(=O)O)c1noc2cc(OCC3CC3)ccc12 (racemic) [Example 150, (+/−)-4-[6-(Cyclopropylmethoxy)-1,2-benzoxazol-3-yl]-4-oxo-2-[2-(4-oxo-1,2,3-benzotriazin-3(4H)-yl)ethyl]butanoic acid]
1700 | 12000 | 420 | O=C(CC(CCn1nnc2ccccc2c1=O)C(=O)O)c1noc2cc(OCC3CCCCC3)ccc12 (racemic) [Example 153, (+/−)-4-[6-(Cyclohexylmethoxy)-1,2-benzoxazol-3-yl]-4-oxo-2-[2-(4-oxo-1,2,3-benzotriazin-3(4H)-yl)ethyl]butanoic acid]
2800 | 13000 | 1400 | O=C(CC(CCn1nnc2ccccc2c1=O)C(=O)O)c1onc2cc(OCc3ccccc3)ccc12 (racemic) [Example 156, (+/−)-4-[6-(Benzyloxy)-2,1-benzoxazol-3-yl]-4-oxo-2-[2-(4-oxo-1,2,3-benzotriazin-3(4H)-yl)ethyl]butanoic acid]
150 | 1100 | 880 | O=C(O)[C@H]1[C@H](Cn2nnc3ccc(C(F)(F)F)cc3c2=O)CC[C@@H]1C(=O)c1cc2cc(OCCc3ccccc3)ccc2o1 (racemic) [Example 157, (+/−)-(1RS,2SR,5RS)-2-{[4-Oxo-6-(trifluoromethyl)-1,2,3-benzotriazin-3(4H)-yl]methyl}-5-{[5-(2-phenylethoxy)-1-benzofur-2-yl]carbonyl}cyclopentanecarboxylic acid (racemate)]
940 | 17000 | 96 | CCCCCOc1ccc2c(C(=O)CC(CCn3nnc4ccccc4c3=O)C(=O)O)coc2c1 (single isomer, unassigned) [Example 91, 4-Oxo-2-[2-(4-oxo-1,2,3-benzotriazin-3(4H)-yl)ethyl]-4-[6-(pentyloxy)-1-benzofur-3-yl]butanoic acid]
14000 | 22000 | 1900 | O=C(CC(CCn1nnc2ccccc2c1=O)C(=O)O)c1cc2cc(OCCc3ccccc3)ccc2o1 (single isomer, unassigned; (+)) [Example 21, (+)-4-Oxo-2-[2-(4-oxo-1,2,3-benzotriazin-3(4H)-yl)ethyl]-4-[5-(2-phenylethoxy)-1-benzofur-2-yl]butanoic acid]
6300 | > 40000 | 1900 | O=C(CC(CCn1nnc2ccccc2c1=O)C(=O)O)c1cc2cc(OCc3ccc(F)cc3)ccc2o1 (single isomer, unassigned; (+)) [Example 23, (+)-4-{5-[(4-Fluorobenzyl)oxy]-1-benzofur-2-yl}-4-oxo-2-[2-(4-oxo-1,2,3-benzotriazin-3(4H)-yl)ethyl]butanoic acid]
32000 | > 40000 | 6100 | O=C(CC(CCn1nnc2ccccc2c1=O)C(=O)O)c1cc2cc(OCc3ccccc3)ccc2o1 (single isomer, unassigned; (+)) [Example 30, (+)-4-[5-(Benzyloxy)-1-benzofur-2-yl]-4-oxo-2-[2-(4-oxo-1,2,3-benzotriazin-3(4H)-yl)ethyl]butanoic acid]
4900 | 34000 | 490 | NC(=O)c1cccc(COc2ccc3oc(C(=O)CC(CCn4nnc5ccccc5c4=O)C(=O)O)cc3c2)c1 (single isomer, unassigned; (+)) [Example 34, (+)-4-{5-[(3-Carbamoylbenzyl)oxy]-1-benzofur-2-yl}-4-oxo-2-[2-(4-oxo-1,2,3-benzotriazin-3(4H)-yl)ethyl]butanoic acid]
> 40000 | 36000 | 2900 | CCCCCCCOc1ccc2cc(C(=O)CC(CCn3nnc4ccccc4c3=O)C(=O)O)oc2c1 (single isomer, unassigned; (+)) [Example 69, (+)-4-[6-(Heptyloxy)-1-benzofur-2-yl]-4-oxo-2-[2-(4-oxo-1,2,3-benzotriazin-3(4H)-yl)ethyl]butanoic acid acid]
440 | 5700 | 490 | O=C(CC(CCn1nnc2ccccc2c1=O)C(=O)O)c1coc2cc(OCC3CCCC3)ccc12 (single isomer, unassigned; (+)) [Example 80, (+)-4-[6-(Cyclopentylmethoxy)-1-benzofur-3-yl]-4-oxo-2-[2-(4-oxo-1,2,3-benzotriazin-3(4H)-yl)ethyl]butanoic acid]
580 | 16000 | 170 | O=C(CC(CCn1nnc2ccccc2c1=O)C(=O)O)c1coc2cc(OCC3CCCCC3)ccc12 (single isomer, unassigned; (+)) [Example 82, (+)-4-[6-(Cyclohexylmethoxy)-1-benzofur-3-yl]-4-oxo-2-[2-(4-oxo-1,2,3-benzotriazin-3(4H)-yl)ethyl]butanoic acid]
2800 | > 40000 | 140 | CCCCCCOc1ccc2c(C(=O)CC(CCn3nnc4ccccc4c3=O)C(=O)O)coc2c1 (single isomer, unassigned; (+)) [Example 100, (+)-4-[6-(Hexyloxy)-1-benzofur-3-yl]-4-oxo-2-[2-(4-oxo-1,2,3-benzotriazin-3(4H)-yl)ethyl]butanoic acid]

Structure (SMILES) | IC50 (MMP-8) [nM] | IC50 (MMP-3) [nM] | IC50 (MMP-2) [nM]
O=C(CC(CCn1nnc2ccccc2c1=O)C(=O)O)c1cc2cc(OCCCC(F)(F)F)ccc2o1 (single isomer, unassigned; enantiomer 2) [Example 13, (+)-4-Oxo-2-[2-(4-oxo-1,2,3-benzotriazin-3(4H)-yl)ethyl]-4-[5-(4,4,4-trifluorobutoxy)-1-benzofur-2-yl]butanoic acid (enantiomer 2)] | 5000 | > 40000 | 1300

Reference: US20170121315A1, “HETEROBICYCLICALLY SUBSTITUTED 4-OXOBUTANE ACID DERIVATIVES AND USE THEREOF” (priority 2014, published 2017)
